Values quoted from earlier work in patent US20150190345A1, “Controlled Release Formulations of Lorazepam” (priority 2014, published 2015).

Legend:
[1] = according to the package insert

For `O=C1Nc2ccc(Cl)cc2C(c2ccccc2Cl)=NC1O` (centres unmarked) [Lorazepam, 7-chloro-5-(2-chlorophenyl)-1,3-dihydro-3-hydroxy-2H-1,4-benzodiazepin-2-one], which “half-life in human plasma” value [1] is on record?
The value was “about 12 hours”.

And the solubility in water?
Its solubility in water is “almost insoluble in water”.
